The values that follow come from ChEMBL document CHEMBL1135384, “Convenient synthesis and evaluation of enzyme inhibitory activity of several N-alkyl-, N-phenylalkyl, and cyclic isourea derivatives of 5a-carba-alpha-DL-fucopyranosylamine” (Bioorg Med Chem Lett, 2002).

SMILES strings stand for the structures.

Assay [1] addresses T1, Beta-galactosidase (Bos taurus, UniProt Q58D55).
T1 sequence (Q58D55 whole entry): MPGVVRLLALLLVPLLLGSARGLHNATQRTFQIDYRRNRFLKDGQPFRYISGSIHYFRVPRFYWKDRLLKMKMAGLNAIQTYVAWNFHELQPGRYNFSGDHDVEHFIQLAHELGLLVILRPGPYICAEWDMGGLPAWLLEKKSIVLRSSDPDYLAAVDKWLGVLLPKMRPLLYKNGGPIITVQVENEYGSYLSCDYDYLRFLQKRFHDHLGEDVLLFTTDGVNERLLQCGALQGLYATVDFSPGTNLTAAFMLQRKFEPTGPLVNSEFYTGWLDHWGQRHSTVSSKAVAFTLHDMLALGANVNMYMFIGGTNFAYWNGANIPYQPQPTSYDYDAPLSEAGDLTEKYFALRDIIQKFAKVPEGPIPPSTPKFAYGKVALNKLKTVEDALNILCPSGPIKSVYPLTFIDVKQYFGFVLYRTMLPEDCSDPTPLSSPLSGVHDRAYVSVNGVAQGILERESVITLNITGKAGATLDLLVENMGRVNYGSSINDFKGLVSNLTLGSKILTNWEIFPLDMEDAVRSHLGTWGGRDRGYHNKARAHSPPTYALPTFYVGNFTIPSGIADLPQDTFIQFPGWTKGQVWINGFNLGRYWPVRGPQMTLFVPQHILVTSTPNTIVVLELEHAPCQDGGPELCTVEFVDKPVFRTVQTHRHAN
Nature of the assay: Inhibitory activity against Beta-galactosidase in bovine liver was determined;NI means no inhibition.

Assay [2] has as its target T1, Beta-galactosidase. Nature of the assay: Inhibitory activity against Beta-galactosidase in bovine liver was determined. The assay is classed as tissue-based.

On to `C[C@@H]1C[C@H](N)C(O)C(O)[C@@H]1O` (single isomer, unassigned), for which the 50% inhibitory concentration (IC50) entry on Beta-galactosidase [1] is “Not Active”. With `CCNC1CC(C)[C@@H](O)[C@H](O)[C@H]1O` (some centres undefined), the IC50 result against Beta-galactosidase [1] is “Not Active”. Regarding `CC1CC2N=C(NCc3ccccc3)O[C@@H]2[C@@H](O)[C@@H]1O` (some centres undefined), on Beta-galactosidase [1], the half-inhibitory concentration (IC50) result was “Not Active”.

On to `C[C@@H]1NC[C@@H](O)[C@H](O)[C@@H]1O` [DEOXYFUCONOJIRIMYCIN], for which, on Beta-galactosidase [1], the 50% inhibitory concentration (IC50) result is on record as “Not Active”.

Molecule `CCCCCCCCNC1CC(C)[C@@H](O)[C@H](O)[C@H]1O` (some centres undefined) registered an IC50 at Beta-galactosidase [2] of 37 µM. For the molecule `CCCCNC1=NC2CC(C)[C@@H](O)[C@H](O)[C@H]2O1` (some centres undefined), the IC50 result on Beta-galactosidase [1] was “Not Active”. `CC1CC2N=C(Nc3ccccc3)O[C@@H]2[C@@H](O)[C@@H]1O` (some centres undefined): the concentration for half-maximal inhibition (IC50) entry at Beta-galactosidase [1] is given as “Not Active”. For the molecule `CCCCNC1CC(C)[C@@H](O)[C@H](O)[C@H]1O` (some centres undefined), the half-maximal inhibitory concentration (IC50) entry at Beta-galactosidase [1] was “Not Active”.

Regarding `C[C@@H]1C[C@@H](N)C(O)C(O)[C@@H]1O` (single isomer, unassigned), the 50% inhibitory concentration (IC50) entry against Beta-galactosidase [1] is on record as “Not Active”.

Usually IC50 stands for the concentration at which inhibition is half-maximal. Read a low IC50 as greater potency.
